What is called fraction unbound is the share of the substance not bound to proteins or other matrix. Read a low fraction unbound as little free substance. The Tmax is the time at which the peak concentration occurs. A word on the solubility (kinetic): it is solubility judged after dilution from a stock solution rather than from solid. The EC50 is the concentration giving half of the maximal effect. Read a high EC50 as a less potent agent. A word on the CL/F: it is clearance divided by bioavailability, as obtained after extravascular dosing. The half-life is the time in which the quantity being followed falls by half. Usually Cmax stands for the highest concentration seen after dosing.

In brackets after ≈: the same amount, converted by molar mass.

Series [1] in a line: AUC (infinity) in C57BL/6 mouse liver at 10 mg/kg, ip administered as single dose by mass spectrometry. The series is classed as ADME, organism-based. On the set-up: dose 10 mg/kg, route intraperitoneal, time infinity. To be noted: in vivo.
The nature of series [2]: Apparent volume of distribution in C57BL/6 mouse liver at 10 mg/kg, ip administered as single dose by mass spectrometry. To be noted: in vivo. The format is ADME, organism-based.
Series [3] in a line: Unbound fraction in C57BL/6 mouse liver at 10 mg/kg, ip administered as single dose by mass spectrometry. The format is ADME, organism-based.
Series [4] can be described thus: Drug uptake in C57BL/6 mouse at 15 to 45 mg/kg, ip administered as single dose measured at 8 to 12 hrs post dose by mass spectrometry. The format is ADME, organism-based. To be noted: in vivo.
A short description of series [5]: Tmax in C57BL/6 mouse plasma at 10 mg/kg, ip administered as single dose by mass spectrometry. The format is ADME, organism-based.
Series [6] can be described thus: Solubility of the compound in 1% DMSO/phosphate buffered saline at pH 7.4 incubated for 18 hrs under shaking condition by UPLC/MS analysis. The series is classed as physicochemical.
For series [7], the system named is HepG2. Briefly: Up regulation of LDLR gene expression in human HepG2 cells measured after 6 hrs by qRT-PCR analysis relative to control. The format is functional.
The subject of series [8] is HepG2. The series can be described thus: Up regulation of TRIB1 gene expression in human HepG2 cells measured after 6 hrs by qRT-PCR analysis. The series is classed as functional, cell-based. To be noted: HepG2, 6 h. In general terms: In qPCR the cycle at which signal appears reflects the starting amount.
For series [9], the system named is HepG2. Briefly: Up regulation of TRIB1 gene expression in human HepG2 cells measured after 6 hrs by qRT-PCR analysis relative to control. The format is functional.
Series [10] can be described thus: Stability in mouse liver microsomes assessed as parent compound remaining at 1 uM incubated for 60 mins under shaking condition by UPLC/MS analysis. The format is ADME, Microsome. To be noted: read-out: Stability. (In general: Liver microsomes are vesicles of endoplasmic reticulum, rich in cytochrome P450 enzymes.)
Series [11] is described as follows: AUC (infinity) in C57BL/6 mouse plasma at 10 mg/kg, ip administered as single dose by mass spectrometry. The format is ADME, organism-based. The arrangement: dose 10 mg/kg, route intraperitoneal, time infinity. The note with it: in vivo.
A short description of series [12]: Clearance in C57BL/6 mouse plasma at 10 mg/kg, ip administered as single dose by mass spectrometry. The format is ADME, organism-based.
Series [13] in a line: Half life in C57BL/6 mouse plasma at 10 mg/kg, ip administered as single dose by mass spectrometry. The series is classed as ADME, organism-based.
Series [14] is described as follows: Cmax in C57BL/6 mouse liver at 10 mg/kg, ip administered as single dose by mass spectrometry. The format is ADME, organism-based. On the set-up: dose 10 mg/kg, route intraperitoneal.
The nature of series [15]: Cmax in C57BL/6 mouse plasma at 10 mg/kg, ip administered as single dose by mass spectrometry. The format is ADME, organism-based. On the set-up: dose 10 mg/kg, route intraperitoneal.
Series [16] in a line: Tmax in C57BL/6 mouse liver at 10 mg/kg, ip administered as single dose by mass spectrometry. The format is ADME, organism-based.
Series [17] deals with HepG2. Briefly: Up regulation of LDLR gene expression in human HepG2 cells measured after 6 hrs by qRT-PCR analysis. The note with it: HepG2, 6 h. The format is functional, cell-based.
Series [18] relates to HepG2. The series can be described thus: Down regulation of PCSK9 gene expression in human HepG2 cells measured after 24 hrs by qRT-PCR analysis. The format is functional, cell-based. The note with it: HepG2, 24 h.
Series [19] is described as follows: Toxicity in C57BL/6 mouse at 15 to 45 mg/kg, ip administered as single dose measured over 24 hrs. The series is classed as organism-based. To be noted: in vivo.
Series [20] in a line: Apparent volume of distribution in C57BL/6 mouse plasma at 10 mg/kg, ip administered as single dose by mass spectrometry. To be noted: in vivo. The format is ADME, organism-based.
Series [21] in a line: Half life in C57BL/6 mouse liver at 10 mg/kg, ip administered as single dose by mass spectrometry. The series is classed as ADME, organism-based.

Take `CC(C)COC(=O)NC[C@@H]1CC[C@H]2[C@H](COc3ccc(NC(=O)c4ccc(C(F)(F)F)cc4)cc3C(=O)N2C)O1`: the AUC in [1] was 16803 µg/L/h; in [11] it was 3616 µg/L/h. Further, the Vz in [2] is 0.99 L/kg; in series [20], 4.48 L/kg. Besides, in series [3], the fraction unbound amounted to 0.01. Further, the Drug uptake entry in series [4] was “Active”. The Tmax was found to be 30 min in [5] and 4.8 min in series [16]. In series [6], the solubility (kinetic) at 18 h is 7 µM (≈ 3.95 µg/mL). The values for the max activation in the series with HepG2 [7] and with HepG2 [9] were 3.7 and 5.8, respectively. Further, the EC50 with HepG2 [8] turned out to be 80 nM; with HepG2 [17], 170 nM; with HepG2 [18], 60 nM. For the same molecule, the remaining at 1 h, 1 µM in [10] came to 28%. This molecule gave an apparent clearance CL/F in series [12] of 46.2 mL/min/kg. In addition, the figures for the half-life in [13] and in series [21] were 67.2 min and 69.6 min, respectively. Moreover, the Cmax came out at 13100 ng/mL in series [14] and 2310 ng/mL in [15]. Moreover, the Activity entry in [19] is “Non-Toxic”.

These data come from ChEMBL document CHEMBL4368855, “Novel tricyclic glycal-based TRIB1 inducers that reprogram LDL metabolism in hepatic cells” (Medchemcomm, 2018).
